Data from US20080213175A1, “Click chemistry-derived cyclic peptidomimetics as integrin markers” (priority 2006, published 2008).

Tests used:
[1] = target: T1, Integrin αvβ3 expressing U87MG cells (Homo sapiens, UniProt P05106+P06756); test: Cell-based integrin binding competition assay; settings: competition with 2 μM fluorescence labeled compound 18, 2 hrs
T1 construct: Integrin αvβ3 expressing U87MG cells; endogenous in cells; host or cells: U87MG
Procedure: Integrin αvβ3 expressing U87MG cells were incubated with a series of concentration of RGD compounds (0-32 μM) in the presence of 2 μM of green fluorescence labeled compound 18 for 2 hrs. After incubation, cells were washed three times to eliminate unbound RGD compounds. Fluorescence readings (RLU) were then taken (excitation at 491 nm, emission at 518 nm, cutoff 515 nm).
The results are consistent with that of surface plasmon resonance assay.

Integrin αvβ3 = Integrin αvβ3 (Homo sapiens, UniProt P05106+P06756); test: Surface plasmon resonance (SPR) 'inverse' integrin αvβ3 assay; type: binding
Procedure: Compound 17 was immobilized onto a CM5 chip (Supplier: Biacore. CM5 is a SPR chip with a carboxymethylated dextran covalently attached to a gold surface) via amine coupling. Integrin αvβ3 samples at 25 nM concentration, premixed with a wide range of concentrations of RGD test compound (0˜1000 nm), were flowed through the CM5 chip at 14° C. The interactions between the flowing integrin αvβ3 sample and the surface of the chip were recorded by Biacore sensorgram signals. Flow cell #1 served as blank control and the flow cell #2 were coated with compound 17. After subtraction the blank signal of flow cell #1 from the signal of flow cell #2, the resulting sensorgram signals from each cycle were converted into percentage values. Then the Kd and IC50 values for each RGD compounds were calculated.

[2] = system: tumor xenograft of either U87MG human glioblastoma or A431 human squamous cell carcinoma; settings: mouse, in vivo
Procedure: PET Studies: In vivo microPET imaging of a tumor-bearing mouse is performed on an anesthetized mouse bearing tumor xenograft of either U87MG human glioblastoma or A431 human squamous cell carcinoma after administration of cyclic peptidomimetic. […] See e.g. FIG. 3-6.

integrin = integrin (Homo sapiens, UniProt P05106+P06756); settings: cited from earlier work
[3] = system: A431 human squamous cell carcinoma model; settings: tumor cells integrin negative; cited from earlier work
[4] = system: integrin-positive M21 melanoma xenograft; settings: integrin-positive M21 melanoma xenograft model; cited from earlier work
[5] = cited from earlier work
[6] = SPR, compared with RGDfK, FIG. 1

**Q.** For `N=C(N)NCCC[C@@H]1NC(=O)[C@H](CCCCN)n2cc(nn2)[C@H](Cc2ccccc2)NC(=O)[C@H](CC(=O)O)NC(=O)CNC1=O` [Compound 1], which potency [1] is on record?
**A.** very similar in potency

**Q.** What about the “binding affinity to integrin αvβ3” value (Integrin αvβ3; 'inverse' SPR, compound 17 immobilized on CM5 chip, integrin αvβ3 25 nM, 14° C.) of the same compound?
**A.** surprisingly high binding affinity

**Q.** What about the IC50 (Integrin αvβ3; [6]) of the same compound?
**A.** very close to those of RGDfK

**Q.** And the Kd (Integrin αvβ3; [6])?
**A.** very close to those of RGDfK

**Q.** Which “renal clearance and liver uptake” value [2] does the source give for `N=C(N)NCCC[C@@H]1NC(=O)[C@H](CCCCNC(=O)CCOCCOCCOCCOCCNC(=O)Cn2cc(CCCF)nn2)n2cc(nn2)[C@H](Cc2ccccc2)NC(=O)[C@H](CC(=O)O)NC(=O)CNC1=O` [Compound 2] here?
**A.** favorable renal clearance and very little liver uptake

**Q.** What about the “tumor uptake and retention” value [2] of the same compound?
**A.** good tumor uptake and retention

**Q.** And the “wash-out rate from muscle and other healthy tissues” value [2]?
**A.** fast wash-out rate

**Q.** With `N=C(N)NCCC[C@@H]1NC(=O)[C@H](CCCCNC(=O)CCN(CCC(=O)NCCCC[C@H]2C(=O)N[C@@H](CCCNC(=N)N)C(=O)NCC(=O)N[C@@H](CC(=O)O)C(=O)N[C@@H](Cc3ccccc3)c3cn2nn3)C(=O)CCOCCOCCOCCOCCNC(=O)Cn2cc(CCCF)nn2)n2cc(nn2)[C@H](Cc2ccccc2)NC(=O)[C@H](CC(=O)O)NC(=O)CNC1=O` [Compound 3] as the compound, how does the “renal clearance and liver uptake” value [2] read?
**A.** favorable renal clearance and very little liver uptake

**Q.** What about the “tumor uptake and retention” value [2] of the same compound?
**A.** good tumor uptake and retention

**Q.** And the “wash-out rate from muscle and other healthy tissues” value [2]?
**A.** fast wash-out rate

**Q.** For `CC([18F])C(=O)NC[C@H]1OC(C(=O)NCCCC[C@@H]2NC(=O)C(Cc3ccccc3)NC(=O)[C@H](CC(=O)O)NC(=O)CNC(=O)[C@H](CCCNC(=N)N)NC2=O)[C@@H](O)C(O)C1O` (stereo partly drawn) [[^18F]galacto-RGD], which integrin binding affinity (integrin) is on record?
**A.** relatively low integrin binding affinity

**Q.** What about the “visualization of integrin αvβ3 expression from tumor vasculature” value [3] of the same compound?
**A.** sensitive enough for visualization of integrin αvβ3 expression

**Q.** And the tumor uptake [4]?
**A.** integrin αvβ3-specific tumor uptake

**Q.** What about the “activity accumulation in organs” value ([5]; both preclinical models and human studies) of the same compound?
**A.** prominent activity accumulation in the liver, kidneys, spleen, and intestines

**Q.** And the safety of administration ([5]; healthy volunteers and a limited number of cancer patients)?
**A.** could be safely administered to patients

**Q.** What about the pharmacokinetic behavior ([5]; human, in vivo) of the same compound?
**A.** unfavorable pharmacokinetic behavior

**Q.** And the “tumor standard uptake values” ([5]; human, in vivo)?
**A.** modest tumor standard uptake values

**Q.** And the “delineation of integrin-positive lesions” value ([5]; initial clinical trials)?
**A.** able to delineate certain lesions that were integrin-positive with reasonable contrast
